For orientation: EC50 means the midpoint of the concentration-response curve.

For the assay, the system named is rat embryo ventral mesencephalic cells. Put plainly: Neuroprotection assay (NMDA-induced neuroexcitotoxic injury, 3H-dopamine uptake). The settings on record: VM cell culture, NMDA 100-400 μM for 20 hours, high affinity 3H-dopamine uptake. The format is cell-based, Sprague-Dawley rat. The text has this:
The neuroprotective activity of the compounds of this invention may be assayed using rat embryo ventral mesencephalic cells in culture which are subsequently exposed to the glutamate receptor agonist NMDA. This assay is described in detail in the example section.
The ventral mesencephalic region was dissected out of embryonic day 15 Sprague-Dawley rat embryos (Harlan), dissociated into single cell suspension by a combination of trypsinization and trituration (Costantini et al., Neurobiol Dis., pp. 97-106 (1998). Dissociated VM cells were plated into poly-L-ornithine-coated 96-well plates at a density of 85,000 cells/well in 100 uL of DMEM supplemented with 18% heat-inactivated horse serum, 0.24% glucose, 2 mM glutamine and 50 u/ml pernicillin/streptomycin and incubated in a 5% CO2 incubator. After one day in culture (DIV1), the medium was replaced with 100 μL of a defined medium (DMEM supplemented with 1×N2 cocktail (Gibco-BRL), 0.12% glucose, 2 mM glutamine, and 50 units/ml penicillin/streptomycin) containing DMSO or various concentrations of the compounds of this invention. On DIV5, neuroexcitotoxic injury was induced by the addition of various concentrations of the glutamate receptor agonist NMDA (100-400 μM). Cultures were incubated with the neurotoxin for 20 hours and the effects of neurophilin compounds were assessed using high affinity ^3H-dopamine uptake according to a procedure published by Park and Mytilineou [Brain Res., 599, pp. 83-97 (1992)].
Take `C[C@@H](c1ccccc1)N(C)CC(=O)N1CCC(Cc2ccccc2)CC1` [Compound 8]: the EC50 is 100 to 500 nM.

In the case of `CCN(CC(=O)N1CCC(Cc2ccccc2)CC1)Cc1ccccc1` [Compound 6], the EC50 was in the range of 100 to 500 nM.

`C[C@@H](c1ccccc1)N(C)CC(=O)N1CCN(C(c2ccc(F)cc2)c2ccc(F)cc2)CC1` [Compound 18]: the EC50 was greater than 500 nM.

As to `CCC(C)[C@@H](C(=O)N1CCC(Cc2ccccc2)CC1)N(C)Cc1ccccc1` (some centres unmarked) [Compound 13], the EC50 was greater than 500 nM.

As for `CN(C)CC(=O)N1CCC(Cc2ccccc2)CC1` [Compound 1], the EC50 was greater than 500 nM.

Turning to `C[C@@H](C(=O)N1CCN(C(c2ccc(F)cc2)c2ccc(F)cc2)CC1)N(C)Cc1ccccc1` [Compound 19, 2-(Benzyl-methylamino)-1-{4-[bis-4-(4-fluorophenyl)-methyl]-piperazin-1-yl]-propan-1-one], the EC50 is 100 to 500 nM.

For the molecule `C[C@@H](C(=O)N1CCC(Cc2ccccc2)CC1)N(C)Cc1ccccc1` [Compound 5], the 50% effective concentration (EC50) was less than 100 nM.

Regarding `CCN(CC(=O)N1CCN(c2ccccc2)CC1)Cc1ccccc1` [Compound 2], the EC50 is greater than 500 nM.

For the molecule `C[C@@H](C(=O)N1CCN(c2ccc(F)cc2)CC1)N(C)Cc1ccccc1` [Compound 9, 2-(Benzyl-methylamino)-1-[4-(4-fluorophenyl)-piperazin-1-yl]-propan-1-one], the EC50 is less than 100 nM.

`C[C@H](c1ccccc1)N(C)CC(=O)N1CCN(c2ccccc2)CC1` [Compound 3]: the concentration for a half-maximal effect (EC50) is greater than 500 nM.

On to `O=C(CN(Cc1ccccc1)Cc1ccccc1)N1CCN(c2ccccc2)CC1` [Compound 14], for which the EC50 was greater than 500 nM.

For `CCN(CC(=O)N1CCN(C(c2ccc(F)cc2)c2ccc(F)cc2)CC1)Cc1ccccc1` [Compound 16], the EC50 was greater than 500 nM.

On to `O=C(CN(Cc1ccccc1)Cc1ccccc1)N1CCN(C(c2ccc(F)cc2)c2ccc(F)cc2)CC1` [Compound 20], for which the EC50 is greater than 500 nM.

Regarding `C[C@@H](c1ccccc1)N(C)CC(=O)N1CCN(c2ccccc2)CC1` [Compound 4], the EC50 was greater than 500 nM.

Turning to `O=C(CN(Cc1ccccc1)Cc1ccccc1)N1CCC(Cc2ccccc2)CC1` [Compound 15], the EC50 was greater than 500 nM.

In the case of `C[C@@H](C(=O)N1CCC(Cc2ccc(F)cc2)CC1)N(C)Cc1ccccc1` [Compound 11, 2-(Benzyl-methylamino)-1-[4-(4-fluorobenzyl)-piperidin-1-yl]-propan-1-one], the EC50 was less than 100 nM.

For the molecule `CN(C)C1(C(=O)N2CCC(Cc3ccccc3)CC2)CCc2ccccc21` (centres unmarked) [Compound 10], the EC50 was 100 to 500 nM.

Turning to `C[C@H](c1ccccc1)N(C)CC(=O)N1CCN(C(c2ccc(F)cc2)c2ccc(F)cc2)CC1` [Compound 17], the EC50 was greater than 500 nM.

Consider `C[C@H](c1ccccc1)N(C)CC(=O)N1CCC(Cc2ccccc2)CC1` [Compound 7], for which the EC50 was 100 to 500 nM.

With `CN(C)CC(=O)N1CCN(C(c2ccc(F)cc2)c2ccc(F)cc2)CC1` [Compound 12], the EC50 is greater than 500 nM.

Source of the values: patent publication US6949655B2, “Acyclic piperidine derivatives” (priority 2001, dated 2005).
